Reference: patent publication US20250109127A1, “METHODS OF USE OF PHENOXYPROPYLAMINE COMPOUNDS TO TREAT DEPRESSION” (Minerva Neurosciences, Inc., priority 2013, published 2025)
Several values for one entry are separate records, joined by “and”; a condition that tells them apart may be missing. Identical values can stand only once. Counter-ions that a name gives are not always drawn.

System: 5-HIAA release in the rat prefrontal cortex
Assay: Microdialysis: 5-HIAA release in prefrontal cortex after I.P. administration
Assay type: in vivo
Details: for 5-HIAA (% of respective basal), individual animal: 0.1 mg/kg I.P., c2-c9 = R#13,14,20,19,25,26,31,32; for 5-HIAA (% of respective basal), individual animal / 5-HIAA release, individual animals: hydrochloride; for 5-HIAA release, MEAN / 5-HIAA release, individual animals: 0.3 mg/kg I.P.; for 5-HIAA release, MEAN: n = 8; for 5-HIAA release, individual animals: one column per animal R#11,12,18,23,29,30,17,24
Method: The aim of the study was to evaluate, using microdialysis, the effects of an intraperitoneal (I.P.) administration in rats of three different doses of SON-117 on dopamine and its metabolites, serotonin and its metabolite (5-HIAA), and norepinephrine levels in prefrontal cortex.
Thirty-two adult male Wistar rats were used for the whole study (4 groups of eight animals planned for the study, Table 1).
Surgery was performed on rats weighing about 300 g at the beginning of the experiments. Rats were anaesthetized with Ketamine (50 mg/kg) & Xylazine (15 mg/kg) by intramuscular administration. The animals were placed in a stereotaxic apparatus in the flat-skull position at a constant setting of −3.3 mm between ear bars and the incisor bar. The animals were treated with a local anesthesic (xylocaine 1%, Astra Zeneca) and an analgesic (Temgesic, from Schering Plough, 0.05 mg/kg, s.c.). A rostrocaudal midline incision was made with a lancet to expose the dorsal skull surface. The “stereotaxic zero” was defined by the Bregma in accordance with Paxinos and Watson's atlas (1986). A hole was drilled in the skull with a drill and the meninges were pierced with a sterile needle to implant a CMA12 guide cannula which later received the dialysis probe.
Coordinates used for implanting guide cannula in prefrontal cortex from Bregma were anteroposterior 3.7 mm, mediolateral 0.8 mm, and dorsoventral −2 mm (top of the probe was at −5 mm). The guide cannula was fixed to the skull with two stainless steel screws (1.88 mm outside diameter) anchored. An application of dental cement was added. A plastic collar allowed each animal to be tethered to a Swivel assembly of the CMA 120 awake animal system. Following surgery, rats were kept in individual cages and allowed to recover for a minimum of 3-5 days before the experimentation. The rats were handled and put in plastic bowl for 10 min at least every day to habituate the animals to their new environment for the dialysis. An I.P. administration with saline was also performed every day.
Dialysis probes (CMA12/3 mm, membrane, 20 kD cut-off, Carnegie Medicine, Stockholm, Sweden), were carefully washed before inserting into the guide cannula. The wash was performed with the artificial cerebrospinal fluid (aCSF) medium (NaCl 147 mM, KCl 2.7 mM, CaCl2 1.2 mM, MgCl2 0.85 mM) at room temperature. The dialysis system was then equilibrated at 20° C. at a perfusion rate of 1 μl/min with a Carnegie pump (CMA100). All catheters (FEP tubing, internal volume of 1.2 μl/10 cm, and tubing adaptors) used for microdialysis were treated in the same conditions.
The probes duly prepared were inserted into the guide cannula and the CMA120 Swivel assembly secured to the animal using a plastic collar. Flow through the dialysis probe with aCSF was maintained at a rate of 1 μl/min during the whole experimentation. The first four fractions (corresponding to 2 hours) were discarded to avoid the effects of parenchymal disturbance and to ensure that an approximate steady-state level was reached. Fractions were then collected over a period of 8.5 h during which time the animals remained quiet. The dialysates were automatically collected with an autosampler (microfraction collector CMA 140, Carnegie Medicin) and stored at −80° C. until analysis. […] Perfusion was then maintained for 7 hours with aCSF. The dialysates (30 μl) were collected into 300 μl vials, transferred into dry ice and then kept frozen (−80° C.) until analysis. Frozen samples were shipped to a partner for analysis. At the end of the microdialysis study, a PBS with colored ink was perfused through the probe in order to visualize the dialyzed area.
Catecholamine assay: Concentrations of dopamine, DOPAC, HVA, 5-HIAA, 5-HT, and norepinephrin were determined for each sample by HPLC coupled with electrochemical detection.

Q: `Cc1nnc(-c2cc3c(OC[C@@H](O)CN4CCC(c5ccc(Cl)c(Cl)c5)CC4)cccc3o2)o1` [SON-117, (S)-1-(4-(3,4-dichlorophenyl)piperidino)-3-(2-(5-methyl-1,3,4-oxadiazol-2-yl)benzo(b)furan-4-yloxy)-2-propanol hydrochloride] was tested. Which “5-HIAA (% of respective basal), individual animal” value (“5-HIAA (% of respective basal)” for short) (T30-T1 h) did it give?
A: 123.49 % of respective basal and 103.49 % of respective basal and 107.39 % of respective basal and 112.69 % of respective basal and 111.19 % of respective basal and 139.2 % of respective basal and 117.52 % of respective basal and 104.09 % of respective basal

Q: What about the “5-HIAA (% of respective basal)” value (T1 h 30-T2 h) of the same compound?
A: 92.61 % of respective basal and 104.00 % of respective basal and 73.42 % of respective basal and 136.95 % of respective basal and 121.36 % of respective basal and 90.88 % of respective basal and 109.96 % of respective basal and 88.3 % of respective basal

Q: What about the “5-HIAA (% of respective basal)” value (T1 h-T1 h 30) of the same compound?
A: 133.03 % of respective basal and 136.32 % of respective basal and 86.58 % of respective basal and 118.45 % of respective basal and 137.53 % of respective basal and 136.04 % of respective basal and 114.03 % of respective basal and 94.61 % of respective basal

Q: What about the “5-HIAA (% of respective basal)” value (T2 h 30-T3 h) of the same compound?
A: 85.72 % of respective basal and 87.35 % of respective basal and 46.33 % of respective basal and 101.63 % of respective basal and 145.61 % of respective basal and 142.25 % of respective basal and 116.28 % of respective basal and 27.66 % of respective basal

Q: What about the “5-HIAA (% of respective basal)” value (T2 h-T2 h 30) of the same compound?
A: 100.99 % of respective basal and 85.23 % of respective basal and 60.74 % of respective basal and 101.82 % of respective basal and 125.47 % of respective basal and 100.57 % of respective basal and 111.12 % of respective basal and 50.78 % of respective basal

Q: And the “5-HIAA (% of respective basal)” value (T3 h 30-T4 h)?
A: 85.88 % of respective basal and 94.27 % of respective basal and 31.74 % of respective basal and 96.48 % of respective basal and 188.3 % of respective basal and 137.13 % of respective basal and 101.46 % of respective basal and 21.73 % of respective basal

Q: What about the “5-HIAA (% of respective basal)” value (T3 h-T3 h 30) of the same compound?
A: 129.21 % of respective basal and 80.95 % of respective basal and 41.77 % of respective basal and 96.17 % of respective basal and 133.55 % of respective basal and 113.01 % of respective basal and 113.45 % of respective basal and 29.04 % of respective basal

Q: And the “5-HIAA (% of respective basal)” value (T4 h 30-T5 h)?
A: 135.57 % of respective basal and 84.63 % of respective basal and 82.26 % of respective basal and 21.52 % of respective basal and 127.36 % of respective basal and 130.30 % of respective basal and 108.83 % of respective basal and 86.42 % of respective basal

Q: What about the “5-HIAA (% of respective basal)” value (T4 h-T4 h 30) of the same compound?
A: 155.28 % of respective basal and 81.87 % of respective basal and 29.82 % of respective basal and 104.10 % of respective basal and 154.95 % of respective basal and 128.712 % of respective basal and 116.56 % of respective basal and 100.63 % of respective basal

Q: What about the “5-HIAA (% of respective basal)” value (T5 h 30-T6 h) of the same compound?
A: 139.17 % of respective basal and 82.04 % of respective basal and 19.18 % of respective basal and 72.04 % of respective basal and 120.26 % of respective basal and 106.59 % of respective basal and 103.65 % of respective basal and 79.99 % of respective basal

Q: What about the “5-HIAA (% of respective basal)” value (T5 h-T5 h 30) of the same compound?
A: 141.25 % of respective basal and 94.73 % of respective basal and 20.29 % of respective basal and 84.33 % of respective basal and 123.82 % of respective basal and 104.61 % of respective basal and 111.73 % of respective basal and 87.84 % of respective basal

Q: What about the “5-HIAA (% of respective basal)” value (T6 h 30-T7 h) of the same compound?
A: 142.73 % of respective basal and 92.55 % of respective basal and 23.25 % of respective basal and 79.21 % of respective basal

Q: And the “5-HIAA (% of respective basal)” value (T6 h-T6 h 30)?
A: 150.15 % of respective basal and 87.80 % of respective basal and 10.87 % of respective basal and 82.34 % of respective basal and 124.74 % of respective basal and 107.55 % of respective basal and 96.41 % of respective basal and 77.86 % of respective basal

Q: And the “5-HIAA release, MEAN” value (T0-T30 min)?
A: 103.44 % of respective basal

Q: And the “5-HIAA release, MEAN” value (T30-T1 h)?
A: 100.34 % of respective basal

Q: And the “5-HIAA release, individual animals” value (T30-T1 h)?
A: 98.98 % of respective basal and 79.36 % of respective basal and 110.17 % of respective basal and 105.67 % of respective basal and 80.63 % of respective basal and 95.45 % of respective basal and 117.90 % of respective basal and 114.56 % of respective basal

Q: And the “5-HIAA release, MEAN” value (T1 h 30-T2 h)?
A: 92.27 % of respective basal

Q: And the “5-HIAA release, individual animals” value (T1 h 30-T2 h)?
A: 107.81 % of respective basal and 80.74 % of respective basal and 99.11 % of respective basal and 100.15 % of respective basal and 74.98 % of respective basal and 49.45 % of respective basal and 122.26 % of respective basal and 103.65 % of respective basal

Q: And the “5-HIAA release, MEAN” value (T1 h-T1 h 30)?
A: 98.46 % of respective basal

Q: And the “5-HIAA release, individual animals” value (T1 h-T1 h 30)?
A: 102.59 % of respective basal and 87.99 % of respective basal and 119.49 % of respective basal and 107.50 % of respective basal and 64.53 % of respective basal and 82.55 % of respective basal and 108.28 % of respective basal and 114.78 % of respective basal

Q: And the “5-HIAA release, MEAN” value (T2 h 30-T3 h)?
A: 88.58 % of respective basal

Q: What about the “5-HIAA release, individual animals” value (T2 h 30-T3 h) of the same compound?
A: 90.73 % of respective basal and 88.56 % of respective basal and 94.96 % of respective basal and 87.45 % of respective basal and 59.92 % of respective basal and 79.89 % of respective basal and 107.14 % of respective basal and 99.98 % of respective basal

Q: And the “5-HIAA release, MEAN” value (T2 h-T2 h 30)?
A: 88.16 % of respective basal

Q: What about the “5-HIAA release, individual animals” value (T2 h-T2 h 30) of the same compound?
A: 82.87 % of respective basal and 87.22 % of respective basal and 100.63 % of respective basal and 93.66 % of respective basal and 63.67 % of respective basal and 70.87 % of respective basal and 109.73 % of respective basal and 96.64 % of respective basal
